From patent publication US12187709B2 (Genentech, Inc., priority 2021, dated 2025)
pIC50, pKd: −log10 of the molar value.

Tests used:
[1] = molecular target: Cbl-b (Homo sapiens (Human), UniProt Q13191); assay: Cbl-b LCK Ub TR-FRET assay (Cbl-b Lck HTRF); assay type: biochemical; settings: for pIC50: Cbl-b LCK Ub TR-FRET
Procedure, shortened: (§1)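 After the ubiquitination reaction, detection mixture was added and plates incubated 20 min at room temperature before reading. IC50 values were calculated with wells lacking LCK as the low control and DMSO as the high control.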

[2] = molecular target: Human Cbl-b (residues 40-426) (Homo sapiens (Human), UniProt Q13191); assay: Cbl-b SPR assay; assay type: binding; settings: for Fold of selectivity: C-cbl SPR Kd vs Cbl-b SPR Kd; for pKd: SPR, 20° C.
Experimental: (§2) Affinity of binding to Cbl-b and c-Cbl for compounds described herein was assessed by surface plasmon resonance (SPR) according to the following protocol.
(§3) A surface capture range of 1300-1500 RU of protein was used for both isoforms.
(§4) For SPR measurements, 6 concentrations with 2 fold serial dilution were measured with blanks flanking each series for double referencing. […] SPR sensorgrams were recorded in multi-cycle kinetics format, with a contact time of 60 seconds and a flow rate of 40 μl/min, the dissociation time was varied between 120-1200 seconds aiming for 4-5 half-lives of the measured interaction.
(§5) Kinetic and affinity parameters were extracted from the multicycle kinetics data fitting to a 1:1 binding model using the Biacore™ Incyte evaluation software (Cytiva).
(§6) Chaser assay utilize a single cycle kinetics SPR experiment with a contact time of 120 seconds, a flow rate of 50 μl/min and a dissociation time of 450 seconds. Single cycle kinetics titration utilized an initial blank injection and 5 concentrations with 2 fold serial dilution with a maximum concentration of 500 nM, blanked to a preceding 6 point blank single cycle kinetics injection for double referencing.
(§7) The kd is measured independently by determining the percentage unoccupied compound binding site over time by measuring the binding of a chaser compound measured by SPR.
(§8) Chaser binding was measured by a multicycle kinetics SPR experiment using a contact time of 20 seconds, a flow rate of 30 μl/min, and a dissociation time of 120 seconds. […] The % compound bound at a given time was determined by comparison to a single injection of chaser preceding the single cycle kinetics titration defined below. % Compound Bound=(1−(RUT/RUT0))*100
(§9) The % compound bound is plotted against time in seconds and fit to a single exponential, where the exponent represents the kd of the compound-protein complex. The single cycle kinetics experiment of the compound is then fit with a fixed kd determined using the chaser.

[3] = molecular target: c-Cbl (residues 47-435) (Homo sapiens (Human), UniProt P22681); assay: c-Cbl SPR assay; assay type: binding; settings: 20° C.
Experimental: as §2, §3, §4, §5, §6, §7, §8, §9

[4] = molecular target: c-Cbl (Homo sapiens (Human), UniProt P22681); assay: C-Cbl LCK Ub TR-FRET assay (C-cbl Lck HTRF); assay type: biochemical
Procedure, shortened: as §1

[5] = ratio C-cbl Lck HTRF IC50 / Cbl-b Lck HTRF IC50

Human Cbl-b (residues 40-426), sequence (Q13191 40-426): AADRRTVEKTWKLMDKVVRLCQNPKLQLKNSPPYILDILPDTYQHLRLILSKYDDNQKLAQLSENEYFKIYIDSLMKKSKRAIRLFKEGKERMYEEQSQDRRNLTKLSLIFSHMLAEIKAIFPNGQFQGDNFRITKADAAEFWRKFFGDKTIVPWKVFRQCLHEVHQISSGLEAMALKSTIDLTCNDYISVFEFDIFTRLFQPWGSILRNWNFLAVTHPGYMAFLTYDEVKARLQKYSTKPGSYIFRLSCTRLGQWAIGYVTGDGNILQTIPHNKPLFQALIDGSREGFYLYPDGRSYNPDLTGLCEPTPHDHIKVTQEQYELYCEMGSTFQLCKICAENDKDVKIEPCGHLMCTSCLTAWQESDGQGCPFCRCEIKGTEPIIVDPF
Cbl-b, sequence (Q13191 40-426): as above
c-Cbl (residues 47-435), sequence (P22681 47-435): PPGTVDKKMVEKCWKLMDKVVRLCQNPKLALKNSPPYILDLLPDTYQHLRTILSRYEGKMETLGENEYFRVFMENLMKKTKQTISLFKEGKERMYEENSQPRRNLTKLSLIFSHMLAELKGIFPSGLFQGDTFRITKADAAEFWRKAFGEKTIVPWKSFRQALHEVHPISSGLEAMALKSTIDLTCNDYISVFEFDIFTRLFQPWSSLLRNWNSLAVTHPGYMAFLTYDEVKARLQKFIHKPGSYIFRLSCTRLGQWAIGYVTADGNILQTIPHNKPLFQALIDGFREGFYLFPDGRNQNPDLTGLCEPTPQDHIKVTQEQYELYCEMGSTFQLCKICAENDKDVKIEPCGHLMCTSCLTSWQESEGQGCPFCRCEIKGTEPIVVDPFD
c-Cbl, sequence (P22681 47-435): as above

Row | pIC50 [1] | fold-selectivity (Cbl-b over C-cbl) [1, 5] | Fold of selectivity [2] [×] | pKd [2] | pKd [3] | pIC50 [4] | pIC50 ([1]; Example 121) | (fold-selectivity) Cbl-b and C-Cbl Selectivity [1, 5] [x] | Molecule
1 | 7.85 | 3.7x | 12 | 8.64 | 7.57 | 7.29 | – | – | C=CCNc1cc(N2Cc3c(cc(CNC4(C)CCC4)cc3C(F)(F)F)C2=O)cc([C@]2(c3nncn3C)C[C@@H](OC)C2)c1 [Compound 240, 2-(3-(allylamino)-5-((1s,3s)-3-methoxy-1-(4-methyl-4H-1,2,4-triazol-3-yl)cyclobutyl)phenyl)-6-(((1-methylcyclobutyl)amino)methyl)-4-(trifluoromethyl)isoindolin-1-one]
2 | – | – | 6.4 | 8.47 | 7.62 | – | – | – | 2-(3-(2-(4-methyl-4H-1,2,4-triazol-3-yl)-6-oxospiro[3.3]heptan-2-yl)phenyl)-6-(((1-methylcyclobutyl)amino)methyl)-4-(trifluoromethyl)isoindolin-1-one [Compound 92]
3 | – | – | 2.8 | 7.23 | 6.77 | – | – | – | 2-(3-((1r,3r)-3-fluoro-1-(4-methyl-4H-1,2,4-triazol-3-yl)cyclobutyl)phenyl)-6-(((1-methylcyclobutyl)amino)methyl)-4-(trifluoromethyl)isoindolin-1-one [Compound 36]
4 | – | – | 6.6 | 8.64 | 7.80 | – | – | – | 2-(3-(3,3-dimethyl-1-(4-methyl-4H-1,2,4-triazol-3-yl)cyclobutyl)phenyl)-6-(((1-methylcyclobutyl)amino)methyl)-4-(trifluoromethyl)-isoindolin-1-one [Compound 39]
5 | – | – | 14 | 8.24 | 7.11 | – | – | – | CC(C)[C@H]1CN(C)CCN1Cc1cc2c(c(C(F)(F)F)c1)CN(c1cccc(C3(c4nncn4C)CC4(COC4)C3)c1)C2=O
6 | – | – | 9.5 | 8.68 | 7.70 | – | – | – | Cn1cnnc1C1(c2cccc(N3Cc4c(cc(CNC5(C)CCC5)cc4C(F)(F)F)C3=O)c2)CC2(CCC2)C1
7 | – | – | 7.5 | 9.00 | 8.12 | – | – | – | 2-(3-(6-hydroxy-2-(4-methyl-4H-1,2,4-triazol-3-yl)spiro[3.3]heptan-2-yl)phenyl)-6-(((1-methylcyclobutyl)amino)methyl)-4-(trifluoromethyl)isoindolin-1-one [Compound 93]
8 | 7.74 | (0.96x) | – | – | – | 7.77 | – | – | CCc1cc(C2(c3nncn3C)CC(F)(F)C2)cc(N2Cc3c(cc(CNC4(C)CCC4)cc3C(F)(F)F)C2=O)n1 [Compound 59, 2-(4-(3,3-difluoro-1-(4-methyl-4H-1,2,4-triazol-3-yl)cyclobutyl)-6-ethylpyridin-2-yl)-6-(((1-methylcyclobutyl)amino)methyl)-4-(trifluoromethyl)isoindolin-1-one]
9 | 7.80 | 4.8x | – | – | – | 7.11 | – | – | Cn1cnnc1[C@]1(c2cccc(N3Cc4c(cc(CNC5(C)CCC5)cc4C(F)(F)F)C3=O)c2)C[C@H](OC(F)(F)F)C1 [Compound 350, 2-(3-((1s,3s)-1-(4-methyl-4H-1,2,4-triazol-3-yl)-3-(trifluoromethoxy)cyclobutyl)phenyl)-6-(((1 methylcyclobutyl)amino)methyl)-4-(trifluoromethyl)isoindolin-1-one]
10 | – | – | – | – | – | 4.70 | 4.85 | 1.4 | Cn1cnnc1[C@H](c1cccc(N2Cc3c(cc(CNC4(C)CCC4)cc3C(F)(F)F)C2=O)c1)[C@@H]1CCS(=O)(=O)C1 (single isomer, unassigned) [Compound 439]
11 | 5.00 | (1.9x) | – | – | – | 4.72 | – | – | Cn1cnnc1[C@@H](c1cccc(N2Cc3c(cc(CNC4(C)CCC4)cc3C(F)(F)F)C2=O)c1)N1CC(F)(F)C1 (single isomer, unassigned) [Compound 57]
12 | 5.24 | 1.7x | – | – | – | 5.01 | – | – | Cn1cnnc1C1(c2cccc(N3Cc4c(cccc4C(F)(F)F)C3=O)c2)CC2(COC2)C1 [Compound 191, 2-(3-(6-(4-methyl-4H-1,2,4-triazol-3-yl)-2-oxaspiro[3.3]heptan-6-yl)phenyl)-4-(trifluoromethyl)isoindolin-1-one]
13 | 4.96 | 1.9x | – | – | – | 4.70 | – | – | Cn1cnnc1[C@]1(c2cccc(N3Cc4c(cc(CNC5(C)CCC5)cc4C(F)(F)F)C3=O)c2)C[C@@H](S(C)(=O)=O)C1 [Compound 325, 2-(3-((1r,3r)-1-(4-methyl-4H-1,2,4-triazol-3-yl)-3-(methylsulfonyl)cyclobutyl)phenyl)-6-(((1-methylcyclobutyl)amino)methyl)-4-(trifluoromethyl)isoindolin-1-one]
14 | ≤ 4.70 | 1.0x | – | – | – | 4.70 | – | – | Cn1cnnc1[C@](C)(O)c1cccc(N2Cc3c(cc(CNC4(C)CCC4)cc3C(F)(F)F)C2=O)c1 [Compound 305, (R)-2-(3-(1-hydroxy-1-(4-methyl-4H-1,2,4-triazol-3-yl)ethyl)phenyl)-6-(((1-methylcyclobutyl)amino)methyl)-4-(trifluoromethyl)isoindolin-1-one]
15 | 8.14 | (2.4x) | – | – | – | 7.77 | – | – | Cn1cnnc1C1(c2cccc(N3Cc4c(cc(CNC5(C)CCC5)cc4C(F)(F)F)C3=O)c2)CC(C)(C)C1 [Compound 39, 2-(3-(3,3-dimethyl-1-(4-methyl-4H-1,2,4-triazol-3-yl)cyclobutyl)phenyl)-6-(((1-methylcyclobutyl)amino)methyl)-4-(trifluoromethyl)-isoindolin-1-one]
16 | 5.28 | 3.1x | – | – | – | 4.80 | – | – | CC(=O)N1CC2(C1)CC(c1cccc(N3Cc4c(cc(CNC5(C)CCC5)cc4C(F)(F)F)C3=O)c1)(c1nncn1C)C2 [Compound 97, 2-(3-(2-acetyl-6-(4-methyl-4H-1,2,4-triazol-3-yl)-2-azaspiro[3.3]heptan-6-yl)phenyl)-6-(((1-methylcyclobutyl)amino)methyl)-4-(trifluoromethyl)isoindolin-1-one]
17 | 7.96 | (1.1x) | – | – | – | 7.92 | – | – | Cn1cnnc1[C@]1(c2cccc(N3Cc4c(cc(CNC5(C)CCC5)cc4C(F)(F)F)C3=O)c2)C[C@@H](F)C1 [Compound 36, 2-(3-((1r,3r)-3-fluoro-1-(4-methyl-4H-1,2,4-triazol-3-yl)cyclobutyl)phenyl)-6-(((1-methylcyclobutyl)amino)methyl)-4-(trifluoromethyl)isoindolin-1-one]
18 | 5.08 | (1.7x) | – | – | – | 4.85 | – | – | Cn1cnnc1[C@](O)(c1cccc(N2Cc3c(cc(CNC4(C)CCC4)cc3C(F)(F)F)C2=O)c1)C1CCC1 (single isomer, unassigned) [Compound 1]
19 | 7.12 | 4.0x | – | – | – | 6.52 | – | – | Cn1cnnc1[C@@H](CC1CCC1)c1cccc(N2Cc3c(cc(CNC4(C)CCC4)cc3C(F)(F)F)C2=O)c1 [Compound 269, (S)-2-(3-(2-cyclobutyl-1-(4-methyl-4H-1,2,4-triazol-3-yl)ethyl)phenyl)-6-(((1-methylcyclobutyl)amino)methyl)-4-(trifluoromethyl)isoindolin-1-one]
